Activity calls are given as the source filed them. The calls are words filed in the database; no cut-off is given here.
What follows are compounds tested against Dipeptidyl peptidase 4 (Sus scrofa, UniProt P22411) (assay: Inhibition of pig kidney DPP4 by spectrophotometric method).
Dipeptidyl peptidase 4, sequence (P22411 whole entry): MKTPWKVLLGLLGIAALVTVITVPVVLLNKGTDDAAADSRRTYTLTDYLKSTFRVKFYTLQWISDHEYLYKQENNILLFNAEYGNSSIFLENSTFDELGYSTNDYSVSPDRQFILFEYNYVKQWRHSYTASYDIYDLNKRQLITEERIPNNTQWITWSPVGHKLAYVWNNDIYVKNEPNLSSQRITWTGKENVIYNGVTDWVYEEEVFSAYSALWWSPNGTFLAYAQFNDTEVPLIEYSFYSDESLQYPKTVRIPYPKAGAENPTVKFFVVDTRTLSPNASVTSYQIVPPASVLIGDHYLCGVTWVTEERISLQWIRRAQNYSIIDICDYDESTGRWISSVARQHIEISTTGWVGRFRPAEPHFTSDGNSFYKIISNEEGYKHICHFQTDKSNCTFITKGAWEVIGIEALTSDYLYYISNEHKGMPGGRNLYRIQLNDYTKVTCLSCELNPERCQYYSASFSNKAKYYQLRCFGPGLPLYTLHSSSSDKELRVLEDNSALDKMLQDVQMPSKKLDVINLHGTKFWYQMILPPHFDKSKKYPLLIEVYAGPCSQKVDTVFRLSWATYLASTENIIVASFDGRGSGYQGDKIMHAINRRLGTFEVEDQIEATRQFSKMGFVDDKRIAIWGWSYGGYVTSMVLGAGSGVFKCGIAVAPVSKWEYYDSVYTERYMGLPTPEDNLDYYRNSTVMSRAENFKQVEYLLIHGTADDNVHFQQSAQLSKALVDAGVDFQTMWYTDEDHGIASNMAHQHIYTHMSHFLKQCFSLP

| Structure (SMILES) | IC50 |
| --- | --- |
| N#C[C@@H]1CSCN1C(=O)CN(N)C1CCNCC1 | 12100 nM |
| N#C[C@@H]1CSCN1C(=O)CN(N)C1CCN(CC(=O)NCc2ccccc2F)CC1 | 510 nM |
| CCNN(CC(=O)N1CSC[C@H]1C#N)C1CCN(S(C)(=O)=O)CC1 | 3760 nM |
| COc1ccc(S(=O)(=O)N2CCC(N(N)CC(=O)N3CSC[C@H]3C#N)CC2)cc1 | 6680 nM |
| Cc1nc(NC(=O)CN2CCC(N(N)CC(=O)N3CSC[C@H]3C#N)CC2)sc1C | 185 nM |
| N#C[C@@H]1CSCN1C(=O)CN(N)C1CCN(CC(=O)NC2CC2)CC1 [listing 1 of 2 here] | 236 nM |
| N#C[C@@H]1CSCN1C(=O)CN(N)C1CCN(Cc2ccc([N+](=O)[O-])cc2)CC1 | 698 nM |
| N#C[C@@H]1CSCN1C(=O)CN(N)C1CCN(C(=O)c2cccc(Cl)c2Cl)CC1 | 1790 nM |
| N#C[C@@H]1CSCN1C(=O)CN(N)C1CCN(CC(=O)Nc2ncc(Br)s2)CC1 | 226 nM |
| CC(=O)N1CCC(N(N)CC(=O)N2CSC[C@H]2C#N)CC1 | 1530 nM |
| N#C[C@@H]1CSCN1C(=O)CN(N)C1CCN(CC(=O)Nc2nc3ccccc3s2)CC1 | 134 nM |
| N#C[C@@H]1CSCN1C(=O)CN(N)C1CCN(COc2ccccc2)CC1 | 638 nM |
| N#C[C@@H]1CSCN1C(=O)CN(N)C1CCN(Cc2ccccc2)CC1 | 1630 nM |
| N#Cc1cc(CN2CCC(N(N)CC(=O)N3CSC[C@H]3C#N)CC2)ccc1-c1ccccc1 | 1020 nM |
| CC1CCC(C(=O)N2CCC(N(N)CC(=O)N3CSC[C@H]3C#N)CC2)CC1 (some centres not stated) | 866 nM |
| N#C[C@@H]1CSCN1C(=O)CN(N)C1CCN(CC(=O)Nc2ccc(S(N)(=O)=O)cc2)CC1 [listing 1 of 2 here] | 90 nM |
| N#C[C@@H]1CSCN1C(=O)CN(N)C1CCN(CC(=O)NC2CCCCC2)CC1 | 506 nM |
| N#C[C@@H]1CSCN1C(=O)CN(N)C1CCN(CC(=O)Nc2ccc3c(c2)OCO3)CC1 | 240 nM |
| N#C[C@@H]1CSCN1C(=O)CN(N)C1CCN(C(=O)CN2CCOCC2)CC1 | 830 nM |
| N#Cc1ccc(NC(=O)CN2CCC(N(N)CC(=O)N3CSC[C@H]3C#N)CC2)nc1 [listing 1 of 2 here] | 130 nM |
| N#C[C@@H]1CSCN1C(=O)CN(N)C1CCN(CC(=O)Nc2ncccn2)CC1 | 143 nM |

| Structure (SMILES) | IC50 |
| --- | --- |
| COCCNC(=O)CN1CCC(N(N)CC(=O)N2CSC[C@H]2C#N)CC1 | 1030 nM |
| N#Cc1ccc(NC(=O)CN2CCC(N(N)CC(=O)N3CSC[C@H]3C#N)CC2)cc1 | 200 nM |
| N#C[C@@H]1CSCN1C(=O)CN(N)C1CCN(CC(=O)NC2CC2)CC1 [listing 2 of 2 here] | 217 nM |
| N#C[C@@H]1CSCN1C(=O)CN(N)C1CCN(CC(=O)Nc2ccc(S(N)(=O)=O)cc2)CC1 [listing 2 of 2 here] | 98 nM |
| N#C[C@@H]1CSCN1C(=O)CN(N)C1CCN(Cc2cccnc2)CC1 | 4770 nM |
| CS(=O)(=O)N1CCC(N(N)CC(=O)N2CSC[C@H]2C#N)CC1 | 1460 nM |
| Cc1ccc(S(=O)(=O)N2CCC(N(N)CC(=O)N3CSC[C@H]3C#N)CC2)cc1 | 2700 nM |
| N#C[C@@H]1CSCN1C(=O)CN(N)C1CCN(CC(=O)Nc2ccc(F)c(Cl)c2)CC1 | 359 nM |
| N#C[C@@H]1CSCN1C(=O)CN(N)C1CCN(Cc2ccc(F)cc2)CC1 | 2230 nM |
| CN(CCN)C(=O)N1CCC(N(N)CC(=O)N2CSC[C@H]2C#N)CC1 | 1230 nM |
| N#C[C@@H]1CSCN1C(=O)CN(N)C1CCN(C(=O)N2CCOCC2)CC1 | 790 nM |
| COC(=O)NN(CC(=O)N1CSC[C@H]1C#N)C1CCN(CC(=O)Nc2ccc(Cl)cn2)CC1 | 38400 nM |
| CC(C)(C)C(=O)N1CCC(N(N)CC(=O)N2CSC[C@H]2C#N)CC1 | 4150 nM |
| N#C[C@@H]1CSCN1C(=O)CN(N)C1CCN(CC(=O)Nc2ccc(C(F)(F)F)cc2)CC1 | 308 nM |
| CC(C)OCCCNC(=O)CN1CCC(N(N)CC(=O)N2CSC[C@H]2C#N)CC1 | 468 nM |
| N#C[C@@H]1CSCN1C(=O)CN(N)C1CCN(S(=O)(=O)c2ccc(Cl)cc2)CC1 | 1450 nM |
| N#C[C@@H]1CSCN1C(=O)CN(N)C1CCN(CC(=O)NC23CC4CC(CC(C4)C2)C3)CC1 | 523 nM |
| N#Cc1ccc(NC(=O)CN2CCC(N(N)CC(=O)N3CSC[C@H]3C#N)CC2)nc1 [listing 2 of 2 here] | 110 nM |
| CCNN(CC(=O)N1CSC[C@H]1C#N)C1CCN(CC(=O)Nc2ccc(Cl)cn2)CC1 | 490 nM |
| N#C[C@@H]1CCCN1C(=O)CN(N)C1CCN(CC(=O)Nc2ccc(Cl)cn2)CC1 | 3700 nM |

These compounds were tested on Rattus norvegicus (assay: Antidiabetic activity in ZDF rat diabetic model assessed as decrease in glucose excursion at 44 mg/kg, po administered BID for 6 weeks by OGTT).
Assay type: functional, organism-based
Set-up: dose 44 mg/kg

| Structure (SMILES) | Activity |
| --- | --- |
| N#C[C@@H]1CSCN1C(=O)CN(N)C1CCN(CC(=O)Nc2ccc(Cl)cn2)CC1 | Active |

What follows are compounds tested on Rattus norvegicus (assay: Antidiabetic activity in ZDF rat diabetic model assessed as increase in insulin release at 44 mg/kg, po administered BID for 6 weeks by sandwich ELISA).
Assay type: functional, organism-based
Set-up: dose 44 mg/kg

| Structure (SMILES) | Activity |
| --- | --- |
| N#C[C@@H]1CSCN1C(=O)CN(N)C1CCN(CC(=O)Nc2ccc(Cl)cn2)CC1 | Active |

These compounds were tested on Rattus norvegicus (assay: Inhibition of DPP4 in n5-STZ rat at 22 mg/kg, po administered as single dose after 4 hrs relative to vehicle treated control).

| Structure (SMILES) | inhibition in vivo at 22 mg/kg |
| --- | --- |
| N#C[C@@H]1CSCN1C(=O)CN(N)C1CCN(CC(=O)Nc2ccc(Cl)cn2)CC1 | 39.8% |

What follows are compounds tested on Rattus norvegicus (assay: Antidiabetic activity in n5-STZ rat diabetic model assessed as decrease in glucose AUC at 44 mg/kg, po administered as single dose by OGTT).

| Structure (SMILES) | Activity |
| --- | --- |
| N#C[C@@H]1CSCN1C(=O)CN(N)C1CCN(CC(=O)Nc2ccc(Cl)cn2)CC1 | Active |

Each compound was assayed on Rattus norvegicus (assay: Antidiabetic activity in n5-STZ rat diabetic model assessed as decrease in glucose excursion at 44 mg/kg, po administered as single dose by OGTT).

| Structure (SMILES) | Activity |
| --- | --- |
| N#C[C@@H]1CSCN1C(=O)CN(N)C1CCN(CC(=O)Nc2ccc(Cl)cn2)CC1 | Active |

The compounds below were run on Rattus norvegicus (assay: Antidiabetic activity in n5-STZ rat diabetic model assessed as stimulation of insulin response at 44 mg/kg, po administered as single dose by sandwich ELISA).

| Structure (SMILES) | Activity |
| --- | --- |
| N#C[C@@H]1CSCN1C(=O)CN(N)C1CCN(CC(=O)Nc2ccc(Cl)cn2)CC1 | Active |
